Test system: chorioallantoic membrane
Experiment: hen's egg test on the chorioallantoic membrane (HET-CAM): protective effect against the irritant 2% sodium dodecylsulfate
Design: species or system hen's eggs, American White Leghorn (Shaver Starcross 288)
Details: for protective effect (in words): applied 5 min before 2% sodium dodecylsulfate, compared to distilled water, NaCl 0.05/0.5/1.0%, CaCl2 0.05/0.5/5%, sorbitol 0.01/0.1/1% by weight; for Response (x) after 30 s / Response (x) after 2 min / Response (x) after 5 min: rating 0 (no response) to 7 (coagulation), 0.2 ml aqueous test substance, 5 min later 0.2 ml 2% sodium dodecylsulfate; for Response (x) after 30 s: read after 30 s; for Response (x) after 2 min: read after 2 min; for Response (x) after 5 min: read after 5 min
Procedure: Evidence of the activity in terms of enhancing the skin's defenses against noxious agents was furnished in a hen's egg test on the chorioallantoic membrane (HET-CAM), an established predictional test for detecting the irritation potency for the skin and mucosa. For testing, eggs of the race “American White Leghorn” ([…] 288) were employed. The eggs were incubated for 9 d (start of incubation=day 1) in a small-size motor incubator having an automatic turning over device and an automatic moisturizing control (type […] GmbH) at 37±1° C. and 65±5% of relative humidity. At day 9, the eggs were transilluminated for detecting fertilization, the non-fertilized eggs were sorted out, the remaining eggs were placed upright with the blunt pole (air bubble) up and incubated for another 24 h without turning over. At day 10, the egg pole was removed with fine scissors and tweezers, and the chorioallantoic membrane exposed. The following items were tested: irritant effect of the combination of active substances and its components protective effect Thus, 0.2 ml each of the aqueous solution of the test substance was applied, and after an interval of 5 min, 0.2 ml of a 2% solution of the irritant sodium dodecylsulfate was applied. The outcome of the response was compared to the effect obtained with water (placebo) according to the following rating: 0 no response 1 hyperemia-slight 2 hyperemia-medium 3 hyperemia-strong 4 hemorrhage-isolated 5 hemorrhage-frequent 6 hemorrhage-massive 7 coagulation […]

| Structure (SMILES) | protective effect (in words) | Response (x) after 30 s | Response (x) after 2 min | Response (x) after 5 min |
| --- | --- | --- | --- | --- |
| [Ca+2].[Cl-].[Cl-] [CaCl2, calcium chloride] | did not display any protective effects | – | – | – |
| N#C[S-].[Na+] [Comp. 2, NaSCN] | display a skin protective activity | 2.8 | 3.1 | 3.8 |
| NC(N)=O [Comp. 3, urea] | display a skin protective activity | 2.8 | 3.6 | 4.0 |
| [Cl-].[Na+] [NaCl, sodium chloride] | did not display any protective effects | – | – | – |
| OC[C@@H](O)[C@@H](O)[C@H](O)[C@@H](O)CO [sorbitol] | did not display any protective effects | – | – | – |
